# According to publication PMC4376353 (Angewandte Chemie (International ed. in English), 2015):
# How the values were obtained:
# LanGT2 [1] = molecular target: T1, LanGT2 (Streptomyces cyanogenus, UniProt Q9ZGC0); test: X-ray crystal structure; assay type: binding; details: nucleotide-sugar site; TDP-olivose had broken down, product TDP bound
# T1 sequence (Q9ZGC0 1-373): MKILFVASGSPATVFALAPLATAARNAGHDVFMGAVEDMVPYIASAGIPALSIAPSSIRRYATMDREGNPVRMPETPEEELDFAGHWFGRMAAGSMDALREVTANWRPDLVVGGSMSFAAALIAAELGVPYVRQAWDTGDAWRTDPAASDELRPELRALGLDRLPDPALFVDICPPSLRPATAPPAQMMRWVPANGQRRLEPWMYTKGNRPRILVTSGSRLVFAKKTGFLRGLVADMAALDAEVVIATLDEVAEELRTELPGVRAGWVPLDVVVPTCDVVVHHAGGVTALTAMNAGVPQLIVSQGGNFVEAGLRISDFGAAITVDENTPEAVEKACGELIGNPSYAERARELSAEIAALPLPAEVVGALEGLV
# LanGT2 [2] = molecular target: T1, LanGT2; test: X-ray crystal structure; assay type: binding; details: non-hydrolyzable substrate analogue; nucleotide-sugar site; 1.85 Å
SMILES,X-ray crystal structure (crystals treated with TDP-olivose) (LanGT2 [1]),X-ray crystal structure (crystal soaking) (LanGT2 [2])
Cc1cn([C@H]2C[C@H](O)[C@@H](COP(=O)(O)OP(=O)(O)O)O2)c(=O)[nH]c1=O [TDP],thus resulting in structures that invariably only had the product TDP bound,–
"Cc1cn([C@H]2C[C@H](O)[C@@H](COP(=O)(O)OP(=O)(O)O[C@@H]3C[C@@H](O)[C@H](O)[C@@H](C)C3)O2)c(=O)[nH]c1=O [compound 8, TDP-carba-D-olivose]",–,LanGT2 crystals were soaked with the synthetic TDP-carba-D-olivose (TcO)
